Measurements reported in US12098159B2, “Solid forms of substituted benzoxaborole and compositions thereof” (5Metis, Inc., priority 2018, dated 2024).

Key:
Type in all cases: physicochemical
[1] = TGA weight loss (ramp, cycle and isothermal TGA)
Method: TGA data were collected using a TA Q5000/5500 TGA from TA Instruments. DSC was performed using a TA Q2000/2500 DSC from TA Instruments.
(§1) This difference was postulated to be caused by preferred orientation, since the morphology of Type A starting material was rod-like. A two-stage weight loss of 0.5% up to 100° C. and 10.0% from 100° C. to 160° C. was observed on the TGA curve. […] (onset temperature). The DVS isotherm plot of Type A was collected at 25° C. between 0 and 95% RH.
The results of VT-XRPD and heating experiment preliminarily confirmed the dehydration reaction. However, the theoretical weight loss of dehydration was calculated to be 5.4%, which was not consistent with the observed TGA weight loss of 10.0%. To further explain the difference on weight loss, the TGA data of Type A were re-visited. The results in FIG. 23B indicate that there might be 2 events involved in the TGA weight loss from 100° C. to 160° C., one of which is the dehydration of (I) (the theoretical weight loss of dehydration was close to the TGA weight loss up to 128° C.), while the other may be the complete decomposition or sublimation of the dehydrated product (if it's partial decomposition, the sample after heated should not convert back to (I) upon exposure to air).
Cycle TGA was conducted by heating Type A to 160° C. and cooling to 50° C. (with N2 purge, without exposure to air), followed by re-heating to 160° C. […] Isothermal TGA was conducted by heating Type A to 160° C. and isothermal at 160° C. for 0.5 hr. A weight loss of >20% was observed during the isothermal stage FIG. 24B, which was postulated to be decomposition/sublimation.

[2] = VT-XRPD and heating experiments: dehydration of (I) to (II) and conversion back
Method: The compound of formula (II) can be prepared by heating the compound of formula (I) under vacuum or by exposing the compound of formula (I) to dehydrating conditions.
To confirm this hypothesis, variable-temperature XRPD (VT-XRPD) and heating experiments were performed. […] The ^1H NMR results in FIG. 22B show no difference before and after heating, likely because the dehydrated product converted back to (I) after being exposed to residual water in DMSO-d6. TGA was also performed by heating (I) to 160° C. and cooling to room temperature, followed by re-heating to 160° C. after placed being placed under ambient conditions overnight. […] All the results were consistent with the hypothesis that dehydration and hydration reactions would occur during heating and exposure to air, respectively.

[3] = Dynamic vapor sorption (DVS) of Type A
Excerpt: After preparation by the method described in Example 1, the starting material was characterized by X-ray powder diffraction (XRPD), thermo gravimetric analysis (TGA), differential scanning calorimetry (DSC), dynamic vapor sorption (DVS), high performance liquid chromatography (HPLC), and ^1H solution nuclear magnetic resonance (^1H NMR).
as §1

Compound	TGA weight loss ([1]; from 100° C. to 160° C.)	cycle TGA weight loss on the re-heating curve ([1]; heated to 160° C., cooled to 50° C. with N2 purge, re-heated, up to 150° C.)	isothermal TGA weight loss ([1]; isothermal at 160° C. for 0.5 hr)	Wt Loss on TGA (%, up to 100° C.) ([1]; up to 100° C.)	XRPD after heating experiment ([2]; heated to 160° C. and cooled to RT, exposed to air)	water up-take (DVS) ([3]; 25° C./80% RH)	form change after the DVS test (XRPD) ([3]; DVS at 25° C. between 0 and 95% RH)	XRPD pattern of dehydrated product after exposure to air ([2]; after heating to 140° C. with N2 purge, exposed in air for 3 hrs)	behaviour on exposure to water ([2]; exposed to water)
OB1OCc2cc(Cl)ccc21 [(I), 5-chlorobenzo[c][1,2]oxaborol-1(3H)-ol]	10.0%	1.3%	> 20%	0.5%	partial conversion to the dehydrated product (II)	0.1%	no form change was observed	–	–
Clc1ccc2c(c1)COB2OB1OCc2cc(Cl)ccc21 [(II), 1,1′-oxybis(5-chloro-1,3-dihydrobenzo[c][1,2]oxaborole)]	–	–	–	–	–	–	–	converted back to Type A	reverts to the compound of formula (I)
